# Where two headings read alike, the source gives them in different places.
# What was measured:
# [1] = test system: human epidermoid carcinoma cells (KB); assay: cells; conditions: Homo sapiens, KB, 72 h, read-out: percentage of inhibition of cellular proliferation of KB cells
# Description: (§1) The human cell line KB originated from the National Cancer Institute (NCI) and was grown in Dulbecco’s Modified Eagle Medium (D-MEM) medium supplemented with 10% foetal calf serum, in the presence of penicillin, streptomycin, and fungizone in a 75 mL flask under 5% CO2. A total of 600 cells were plated in 96-well tissue culture plates in 200 µL of medium and treated 24 h later with 2 μL of stock solution of compounds dissolved in DMSO using a Biomek 3000 (Beckman-Coulter, Brea, CA, USA). Controls received the same volume of DMSO (1% final volume). After 72 h exposure, cell titer 96 Aqueous One solution (Promega, Madison, WI, USA) was added and incubated for 3 h at 37 °C: the absorbance was monitored at 490 nm, and results were expressed as the inhibition of cell proliferation calculated as the ratio [(1 − (OD490 treated/OD490 control)) × 100] in triplicate experiments.
# [2] = target: Eel AChE; parameters: key to mode of AChE inhibition: NCI: non competitive inhibition; CI: competitive inhibition; ND: non described; conditions: cited from earlier work; for IC50: read-out: AChE inhibition IC50
# [3] = target: Insect recombinant AChE; parameters: method as in Sepcic et al. 2001 [33]; key to mode of AChE inhibition: NCI: non competitive inhibition; CI: competitive inhibition; ND: non described; conditions: ref Sepcic et al. 2001 [33], cited from earlier work
# [4] = test system: Human recombinant AchE; parameters: method as in Sirimangkalakitti et al. 2015 [32]; key to mode of AChE inhibition: NCI: non competitive inhibition; CI: competitive inhibition; ND: non described; conditions: ref Sirimangkalakitti et al. 2015 [32], cited from earlier work; for IC50: read-out: AChE inhibition IC50
# [5] = test system: Poecilia reticulata (guppy); assay: Guppy chronic (sub-lethal) exposure, feeding on flakes; type: in vivo; conditions: guppies, sub-lethal dose 1 μg/mL purified compound, 24 h exposure (72 h experiment)
# Description: (§2) The screening of our French Polynesian sponges extract library was performed on acetylcholinesterase inhibitor (AChE) in the aim to investigate a possible chemical defense of sessile organisms on the reef against fishes, their main predators. […] In order to try to evaluate the effect of psammaplysene D in the environment, it was further tested on fresh water fish (guppy, Poecilia reticulata) and reef fish (Acanthurus triostegus) feeding experiment using bathing with or without the bioactive compound. Guppies are fed with commercial flakes, but the wild reef fish feed on natural coral heads, and their appetite evaluated by counting the bites on the corals. Two experiments were run on guppies using Suberea ianthelliformis crude extract and purified psammaplysene D (1): an acute toxicity bioassay (100 μg/mL of crude extract or purified psammaplysene D (1), 1 h) and a chronic toxicity (5 μg/mL of crude extract or 1 μg/mL of purified psammalysene D (1), 72 h).
# 5 to 8 cm long guppies (Poecilia reticulata) were collected at night in a private fresh water pool at Papara (Tahiti, French Polynesia) and immediately acclimated at the laboratory temperature (25 °C). After acclimatization, fishes were parted in two 2 L tanks: one for the control group treated with solvent (N = 5). […]
# [6] = test system: Acanthurus triostegus (reef fish); assay: Reef fish feeding behavior experiment (bites on coral rubble); type: in vivo; conditions: for number of bites on coral pieces per recruit and per hour (in words): A. triostegus recruits (larvae undergoing metamorphosis), 1 μg/mL in tank, 72 h, p < 0.01
# Description: Manini (Acanthurus triostegus) were caught during new moon nights on the foreshore puddles at Tema’e public beach. Recruits (fish larvae undergoing metamorphosis) and juveniles (larvae after the recruits stage) were collected and immediately used for the experiments. Natural lagoon sea-water was used and UV-sterilized prior use. Three conditions were tested on three groups: control, solvent, 1 μg/mL sponge extract treatment, with 4 or 5 fishes in each 3 L tank. The fishes were exposed under semi-static system for 72 h, the experimental solutions were renewed every 24 h to maintain clean experimental conditions. The experiments were performed with fish recruits and juveniles. Rubbles were disposed in each aquarium 1 h/day during 3 days. Feeding behavior experiment consists in counting the overall number of bites on those rubbles in each aquarium. Six videos sequences (N = 6) of 5 or 10 min per aquarium and per day were analyzed. Results are expressed in number of bites per fish and per hour.
# All the values of AChE activity are represented in a boxplot distribution, because of non-normality of variable distribution (N = 4 or 5). The significant differences between controls and treatments (p-value p < 0.05) were analyzed with non-parametric test of Wilcoxon Mann Whitney. In feeding deterrent assay, pairs significant differences between different conditions (p < 0.05) were tested with non-parametric Kruskal Wallis test. All statistical assays were executed using R software (R-3.2.0, The R Foundation for Statistical Computing, Vienna, Austria).
# [7] = in vitro; conditions: human
# Description: as §1
# [8] = test system: Poecilia reticulata (guppy); assay: Guppy acute toxicity bioassay (bathing, 1 h); type: in vivo; conditions: guppies
# Description: as §2
# 5 to 8 cm long guppies (Poecilia reticulata) were collected at night in a private fresh water pool at Papara (Tahiti, French Polynesia) and immediately acclimated at the laboratory temperature (25 °C). After acclimatization, fishes were parted in two 2 L tanks: one for the control group treated with solvent (N = 5). Another experiment was performed using a 1 h treatment with 100 μg/mL of crude extract of the sponge or purified psammaplysene D (1) to check their acute toxicity.
# [9] = test system: AChE; assay: AChE activity in brain and gill extracts of exposed guppies; type: in vivo; conditions: guppies after 1 h exposure to 100 µg/mL, N = 5, p < 0.05
# Description: Brains and gills of these guppies were extracted and the AChE activity measured on the extracts (Figure 7a,b) [29].
# Figure 7 (a) AChE activity, U·mg^−1, after 1 h exposure to 100 µg/mL of Psammalysene D (1). […] Boxplot distribution was made with 5 fish (N = 5).
# All the values of AChE activity are represented in a boxplot distribution, because of non-normality of variable distribution (N = 4 or 5). The significant differences between controls and treatments (p-value p < 0.05) were analyzed with non-parametric test of Wilcoxon Mann Whitney. […] All statistical assays were executed using R software (R-3.2.0, The R Foundation for Statistical Computing, Vienna, Austria).
# [10] = target: T1, acetylcholinesterase (AChE) (Homo sapiens, UniProt P22303); assay: Acetylcholinesterase inhibition assay (Ellman's colorimetric method) and kinetic study; type: biochemical
# T1 construct: purchased Sigma-Aldrich
# Description: The crude extract of the sponge and the purified psammaplysene D (1) were dissolved in DMSO at 10 mg/mL, stored at −20 °C and diluted subsequently 100 times in H2O prior testing. Determination of AChE-inhibitory activity was measured according the Ellman’s colorimetric method, in 96-well tissue culture plates. All reagents, buffers and salts were purchased from Sigma-Aldrich (Saint-Louis, MO, USA). Galantamine was used as a positive control for each analysis. Solvent controls received the same volume of water. After a 30 min incubation at 25 °C in the dark, absorbance was monitored at λ = 405 nm. Results were expressed as the percentage of enzyme inhibition calculated as the ratio: 100 × (ODcontrol − ODtreated)/(ODcontrol − ODblank), where the blanks are the wells without AChE. Serial dilutions of the compound or extract were prepared (100, 50, 25, 12.5, 6.25, 3.12, 1.56, and 0.78 μg/mL) and tested according to the same procedure using 10 μL of each solution. IC50 values were graphically determined by plotting the percentage of inhibition against the compound concentrations. Each assay was performed in triplicate and results are expressed as mean values ± S.D.
# The inhibition mode of psammaplysene D on AChE was determined while measuring the enzyme activity in presence of an increasing concentration of ATCI (0.024, 0.049, 0.098, 0.19, 0.39, 0.78, 1.57, and 3.15 μM), in absence or presence of 2 μg/mL final concentration of purified psammaplysene D. The inhibition mode, Vmax, and KM values were determined by double-reciprocal Lineweaver and Burk plot analysis (1934) of the data obtained.
# T1 sequence (P22303 32-614, species assumed): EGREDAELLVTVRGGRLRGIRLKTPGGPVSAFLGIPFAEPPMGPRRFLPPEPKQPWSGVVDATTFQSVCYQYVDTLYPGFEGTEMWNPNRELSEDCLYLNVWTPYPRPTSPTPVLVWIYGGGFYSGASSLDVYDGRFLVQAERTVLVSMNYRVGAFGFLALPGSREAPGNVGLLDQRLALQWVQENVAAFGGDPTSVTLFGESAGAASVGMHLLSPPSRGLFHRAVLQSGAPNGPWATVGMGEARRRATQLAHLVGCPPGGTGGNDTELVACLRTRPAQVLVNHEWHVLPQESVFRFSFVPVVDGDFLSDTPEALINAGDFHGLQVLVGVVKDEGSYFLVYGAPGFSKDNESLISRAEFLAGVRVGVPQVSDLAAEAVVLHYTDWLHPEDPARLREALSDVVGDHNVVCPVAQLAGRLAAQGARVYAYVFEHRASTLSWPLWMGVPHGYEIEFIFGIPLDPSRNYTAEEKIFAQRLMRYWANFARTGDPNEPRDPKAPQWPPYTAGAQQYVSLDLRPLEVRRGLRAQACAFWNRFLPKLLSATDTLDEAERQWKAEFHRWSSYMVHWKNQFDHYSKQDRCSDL
compound,measurement,setting,value
"O=C(O)c1cc(O)c2c(O)ccc(O)c2n1 [5-hydroxy xanthenuric acid (11), 4,5,8-trihydroxyquinoline-2-carboxilic acid]",inhibition at 1 µM,[1],6 ± 0.5%
same,inhibition at 10 µM,[1],25 ± 1%
"CN(C)CCc1cc(Br)c(OCCCN(C)C(=O)C(Cc2cc(Br)c(O)c(Br)c2)N(C)C)c(Br)c1 (centres unmarked) [Anomoian C (6), O-demethyl anomoian B]",inhibition at 1 µM,[1],15 ± 3%
same,inhibition at 10 µM,[1],28 ± 5%
"CNC(Cc1cc(Br)c(O)c(Br)c1)C(=O)N(C)CCCOc1c(Br)cc(CCN(C)C)cc1Br (centres unmarked) [Anomoian D (7), O-demethyl anomoian A]",inhibition at 1 µM,[1],17 ± 2%
same,inhibition at 10 µM,[1],29 ± 2%
"CNC(Cc1cc(Br)c(OCCCN(C)C)c(Br)c1)C(=O)N(C)CCCOc1c(Br)cc(CCN(C)C)cc1Br (centres unmarked) [Anomoian E (8), anomoian E]",inhibition at 1 µM,[1],6 ± 2%
same,inhibition at 10 µM,[1],82 ± 1%
"CN(C)CCCOc1c(Br)cc(CC(C(=O)N(C)CCCOc2c(Br)cc(CCN(C)C)cc2Br)N(C)C)cc1Br (centres unmarked) [Anomoian F (9), anomoian F]",inhibition at 1 µM,[1],20 ± 0.6%
same,inhibition at 10 µM,[1],100 ± 0.5%
Br.COc1c(Br)cc(C/C(=N\O)C(=O)NCCc2cc(Br)c(OCCCN)c(Br)c2)cc1Br [Aplysamine-4],Ki,"[2]; ref Sepcic et al. 2001 [33], read-out: AChE inhibition KI",16 µM
same,mode of AChE inhibition,[2]; ref Sepcic et al. 2001 [33],NCI
same,Ki,[3]; read-out: AChE inhibition KI,2 µM
same,mode of AChE inhibition,[3],NCI
COC1=C(Br)C(O)C2(C=C1Br)CC(C(=O)NCC(O)COc1c(Br)cc(C3CNC(=O)O3)cc1Br)=NO2 (centres unmarked) [Fistularin 1],IC50,[4],47.5 µM
COC1=C(Br)[C@H](O)[C@@]2(C=C1Br)CC(C(=O)NCCCCCNC(=O)C1=NO[C@]3(C=C(Br)C(OC)=C(Br)[C@@H]3O)C1)=NO2 [Homoaerothionin],IC50,[4],4.5 µM
same,mode of AChE inhibition,[4],CI
CN[C@@H](Cc1cc(Br)c(OC)c(Br)c1)C(=O)NCCc1cc(Br)c(OCCCN(C)C)c(Br)c1 [Isoanomoian A],IC50,[2]; ref Olatunji et al. 2014 [31],70 µM
same,mode of AChE inhibition,[2]; ref Olatunji et al. 2014 [31],NCI
"CN(C)CCc1cc(Br)c(O)c(Br)c1 [N,N-dimethyldibromotyramine (10), N,N-dimethyldibromotyramine]",inhibition at 1 µM,[1],89 ± 1%
same,inhibition at 10 µM,[1],100 ± 1%
"CN(C)CCCOc1c(Br)cc(/C=C/C(=O)N(C)CCCOc2c(Br)cc(CCN(C)C)cc2Br)cc1Br [Psammaplysene D (1), psammaplysene D]",feeding behaviour towards food flakes,[5],loss of appetite from the first day of experiment
same,feeding behaviour towards food flakes,[5]; listed as psammalysene D (1),passivity of the fish towards the food flakes
same,behaviour of reef fish juveniles,[6]; A. triostegus juveniles,did not seem to be impacted
same,number of bites on coral pieces per recruit and per hour (in words),[6],loss of appetite from the first day of experiment
same,number of bites on coral pieces per recruit and per hour (in words),[6]; listed as psammaplysene D (1),significantly and readily decreased the number of bites
same,inhibition at 1 µM,[1],95 ± 0.5%
same,inhibition at 10 µM,[1],100 ± 0.2%
same,IC50 at 72 h,[7],0.7 µM
same,behaviour during acute exposure,"[8]; 100 μg/mL, bathing",totally confused and had uncontrolled mobility
same,acute toxicity outcome,"[8]; 100 μg/mL, one hour bathing",death
same,time to onset of behavioural effects after addition to the tank,[8]; acute exposure 100 μg/mL,20 min
same,AChE activity in gills (in words),[9],mild but significant decrease
same,IC50,[10],1.3 µM
same,mode of AChE inhibition,[10]; Lineweaver-Burk plot,mixed competitive/non-competitive inhibition
same,Vmax,"[10]; Lineweaver-Burk, with 2 μg/mL psammaplysene D, decreasing from 0.0036",0.0007 µmol/min
"CN(C)CCc1cc(Br)c(OCCCN(C)C(=O)/C=C/c2cc(Br)c(O)c(Br)c2)c(Br)c1 [Psammaplysene F (2), psammaplysene F]",inhibition at 1 µM,[1],20 ± 0.2%
same,inhibition at 10 µM,[1],73 ± 2%
"CN(C)CCc1cc(Br)c(OCCCN(C)C(=O)/C=C\c2cc(Br)c(O)c(Br)c2)c(Br)c1 [Psammaplysene G (3), psammaplysene G]",inhibition at 1 µM,[1],17 ± 1%
same,inhibition at 10 µM,[1],75 ± 0.4%
Aplysanzine A,IC50,[2]; ref Olatunji et al. 2014 [31],104 µM
same,mode of AChE inhibition,[2]; ref Olatunji et al. 2014 [31],NCI
Purealidine Q,IC50,[2]; ref Olatunji et al. 2014 [31],1.2 µM
same,mode of AChE inhibition,[2]; ref Olatunji et al. 2014 [31],NCI

# From publication PMC5983277 (Marine Drugs, 2018)
